According to patent publication US10765114B2, “4-amino-6-(pyridyl and 2-substitutedphenyl)-picolinates and 6-amino-2-(pyridyl and 2-substitutedphenyl)-pyrimidine-4-carboxylates and their use as herbicides” (Dow AgroSciences LLC, priority 2013, dated 2020):

System: Key Broadleaf Weed and Crop Species
Experiment: Post-Emergent Test II (Table 5)
Assay type: in vivo
Details: Abutilon theophrasti, post-emergence, 336 h, ABUTH: velvetleaf (Abutilon theophrasti), application rate 70 (kg ai/ha; footnote: g ai/ha), read-out: Visual Growth Reduction (%) 14 Days After Application ABUTH
How it was run: (§1)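 Visual injury ratings (0 = no injury, 100 = complete kill) taken 14 days after treatment, relative to untreated controls. Compounds, in an acetone/DMSO aqueous carrier with crop oil and surfactant, were applied by track sprayer at 187 L/ha, in a twofold dilution series from the top rate, to plants at the first to second true-leaf stage.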
With Cc1c(-c2cc(N)c(Cl)c(C(=O)O)n2)ccc(F)c1F [Compound 87] the pest or weed control at 70 g/ha was 95 to 100%.

Same assay, conditions: Abutilon theophrasti, post-emergence, 336 h, ABUTH: velvetleaf (Abutilon theophrasti), application rate 140 (kg ai/ha; footnote: g ai/ha), read-out: Visual Growth Reduction (%) 14 Days After Application ABUTH
Cc1c(-c2cc(N)c(Cl)c(C(=O)O)n2)ccc(F)c1F [Compound 87] gave a pest or weed control at 140 g/ha of 95 to 100%.

Same assay, conditions: Amaranthus retroflexus, post-emergence, 336 h, AMARE: redroot pigweed (Amaranthus retroflexus), application rate 70 (kg ai/ha; footnote: g ai/ha), read-out: Visual Growth Reduction (%) 14 Days After Application AMARE
In the case of Cc1c(-c2cc(N)c(Cl)c(C(=O)O)n2)ccc(F)c1F [Compound 87], the pest or weed control at 70 g/ha was 95 to 100%.

Same assay, conditions: Amaranthus retroflexus, post-emergence, 336 h, AMARE: redroot pigweed (Amaranthus retroflexus), application rate 140 (kg ai/ha; footnote: g ai/ha), read-out: Visual Growth Reduction (%) 14 Days After Application AMARE
Cc1c(-c2cc(N)c(Cl)c(C(=O)O)n2)ccc(F)c1F [Compound 87] showed a pest or weed control at 140 g/ha of 95 to 100%.

Same assay, conditions: Brassica napus, post-emergence, 336 h, BRSSS: oilseed rape, canola (Brassica napus), application rate 70 (kg ai/ha; footnote: g ai/ha), read-out: Visual Growth Reduction (%) 14 Days After Application BRSSS
With Cc1c(-c2cc(N)c(Cl)c(C(=O)O)n2)ccc(F)c1F [Compound 87] the pest or weed control at 70 g/ha was 85 to 94%.

Same assay, conditions: Brassica napus, post-emergence, 336 h, BRSSS: oilseed rape, canola (Brassica napus), application rate 140 (kg ai/ha; footnote: g ai/ha), read-out: Visual Growth Reduction (%) 14 Days After Application BRSSS
With Cc1c(-c2cc(N)c(Cl)c(C(=O)O)n2)ccc(F)c1F [Compound 87] the pest or weed control at 140 g/ha was 85 to 94%.

Same assay, conditions: Chenopodium album, post-emergence, 336 h, CHEAL: lambsquarters (Chenopodium album), application rate 70 (kg ai/ha; footnote: g ai/ha), read-out: Visual Growth Reduction (%) 14 Days After Application CHEAL
In the case of Cc1c(-c2cc(N)c(Cl)c(C(=O)O)n2)ccc(F)c1F [Compound 87], the pest or weed control at 70 g/ha was 95 to 100%.

Same assay, conditions: Chenopodium album, post-emergence, 336 h, CHEAL: lambsquarters (Chenopodium album), application rate 140 (kg ai/ha; footnote: g ai/ha), read-out: Visual Growth Reduction (%) 14 Days After Application CHEAL
Cc1c(-c2cc(N)c(Cl)c(C(=O)O)n2)ccc(F)c1F [Compound 87] gave a pest or weed control at 140 g/ha of 95 to 100%.

Same assay, conditions: Euphorbia heterophylla, post-emergence, 336 h, EPHHL: wild poinsettia (Euphorbia heterophylla), application rate 70 (kg ai/ha; footnote: g ai/ha), read-out: Visual Growth Reduction (%) 14 Days After Application EPHHL
Work on Cc1c(-c2cc(N)c(Cl)c(C(=O)O)n2)ccc(F)c1F [Compound 87] yielded a pest or weed control at 70 g/ha of 0 to 29%.

Same assay, conditions: Euphorbia heterophylla, post-emergence, 336 h, EPHHL: wild poinsettia (Euphorbia heterophylla), application rate 140 (kg ai/ha; footnote: g ai/ha), read-out: Visual Growth Reduction (%) 14 Days After Application EPHHL
Cc1c(-c2cc(N)c(Cl)c(C(=O)O)n2)ccc(F)c1F [Compound 87] showed a pest or weed control at 140 g/ha of 0 to 29%.

Same assay, conditions: Helianthus annuus, post-emergence, 336 h, HELAN: sunflower (Helianthus annuus), application rate 70 (kg ai/ha; footnote: g ai/ha), read-out: Visual Growth Reduction (%) 14 Days After Application HELAN
For Cc1c(-c2cc(N)c(Cl)c(C(=O)O)n2)ccc(F)c1F [Compound 87], the pest or weed control at 70 g/ha was 85 to 94%.

Same assay, conditions: Helianthus annuus, post-emergence, 336 h, HELAN: sunflower (Helianthus annuus), application rate 140 (kg ai/ha; footnote: g ai/ha), read-out: Visual Growth Reduction (%) 14 Days After Application HELAN
In the case of Cc1c(-c2cc(N)c(Cl)c(C(=O)O)n2)ccc(F)c1F [Compound 87], the pest or weed control at 140 g/ha was 95 to 100%.

Same assay, conditions: Viola tricolor, post-emergence, 336 h, VIOTR: wild pansy (Viola tricolor), application rate 70 (kg ai/ha; footnote: g ai/ha), read-out: Visual Growth Reduction (%) 14 Days After Application VIOTR
Work on Cc1c(-c2cc(N)c(Cl)c(C(=O)O)n2)ccc(F)c1F [Compound 87] yielded a pest or weed control at 70 g/ha of 0 to 29%.

Same assay, conditions: Viola tricolor, post-emergence, 336 h, VIOTR: wild pansy (Viola tricolor), application rate 140 (kg ai/ha; footnote: g ai/ha), read-out: Visual Growth Reduction (%) 14 Days After Application VIOTR
Cc1c(-c2cc(N)c(Cl)c(C(=O)O)n2)ccc(F)c1F [Compound 87] gave a pest or weed control at 140 g/ha of 0 to 29%.

System: Key Grass and Sedge Weeds as well as Grass Crops
Experiment: Post-Emergent Test II (Table 6)
Assay type: in vivo
Details: post-emergence, 336 h, CYPSS, 70 g ai/ha, 14 days after application, read-out: Visual Growth Reduction (%) 14 Days After Application CYPSS
How it was run: as §1
For Cc1c(-c2cc(N)c(Cl)c(C(=O)O)n2)ccc(F)c1F [Compound 87], the pest or weed control at 70 g/ha was 0 to 29%.

Same assay, conditions: post-emergence, 336 h, CYPSS, 140 g ai/ha, 14 days after application, read-out: Visual Growth Reduction (%) 14 Days After Application CYPSS
Compound Cc1c(-c2cc(N)c(Cl)c(C(=O)O)n2)ccc(F)c1F [Compound 87] has a pest or weed control at 140 g/ha of 0 to 29%.

Same assay, conditions: post-emergence, 336 h, DIGSA: crabgrass (Digitaria sanguinalis), 70 g ai/ha, 14 days after application, read-out: Visual Growth Reduction (%) 14 Days After Application DIGSA
Compound Cc1c(-c2cc(N)c(Cl)c(C(=O)O)n2)ccc(F)c1F [Compound 87] has a pest or weed control at 70 g/ha of 0 to 29%.

Same assay, conditions: post-emergence, 336 h, DIGSA: crabgrass (Digitaria sanguinalis), 140 g ai/ha, 14 days after application, read-out: Visual Growth Reduction (%) 14 Days After Application DIGSA
For Cc1c(-c2cc(N)c(Cl)c(C(=O)O)n2)ccc(F)c1F [Compound 87], the pest or weed control at 140 g/ha was 0 to 29%.

Same assay, conditions: post-emergence, 336 h, ECHSS, 70 g ai/ha, 14 days after application, read-out: Visual Growth Reduction (%) 14 Days After Application ECHSS
Compound Cc1c(-c2cc(N)c(Cl)c(C(=O)O)n2)ccc(F)c1F [Compound 87] has a pest or weed control at 70 g/ha of 0 to 29%.

Same assay, conditions: post-emergence, 336 h, ECHSS, 140 g ai/ha, 14 days after application, read-out: Visual Growth Reduction (%) 14 Days After Application ECHSS
Compound Cc1c(-c2cc(N)c(Cl)c(C(=O)O)n2)ccc(F)c1F [Compound 87] has a pest or weed control at 140 g/ha of 0 to 29%.

Same assay, conditions: post-emergence, 336 h, ORYSS (crop), 70 g ai/ha, 14 days after application, read-out: Visual Growth Reduction (%) 14 Days After Application ORYSS
Cc1c(-c2cc(N)c(Cl)c(C(=O)O)n2)ccc(F)c1F [Compound 87] gave a pest or weed control at 70 g/ha of 0 to 29%.

Same assay, conditions: post-emergence, 336 h, ORYSS (crop), 140 g ai/ha, 14 days after application, read-out: Visual Growth Reduction (%) 14 Days After Application ORYSS
Compound Cc1c(-c2cc(N)c(Cl)c(C(=O)O)n2)ccc(F)c1F [Compound 87] has a pest or weed control at 140 g/ha of 0 to 29%.

Same assay, conditions: post-emergence, 336 h, SETFA: giant foxtail (Setaria faberi), 70 g ai/ha, 14 days after application, read-out: Visual Growth Reduction (%) 14 Days After Application SETFA
Work on Cc1c(-c2cc(N)c(Cl)c(C(=O)O)n2)ccc(F)c1F [Compound 87] yielded a pest or weed control at 70 g/ha of 0 to 29%.

Same assay, conditions: post-emergence, 336 h, SETFA: giant foxtail (Setaria faberi), 140 g ai/ha, 14 days after application, read-out: Visual Growth Reduction (%) 14 Days After Application SETFA
Cc1c(-c2cc(N)c(Cl)c(C(=O)O)n2)ccc(F)c1F [Compound 87] gave a pest or weed control at 140 g/ha of 0 to 29%.

Same assay, conditions: post-emergence, 336 h, SORVU: grain sorghum (Sorghum vulgare), 70 g ai/ha, 14 days after application, read-out: Visual Growth Reduction (%) 14 Days After Application SORVU
Cc1c(-c2cc(N)c(Cl)c(C(=O)O)n2)ccc(F)c1F [Compound 87] showed a pest or weed control at 70 g/ha of 0 to 29%.

Same assay, conditions: post-emergence, 336 h, SORVU: grain sorghum (Sorghum vulgare), 140 g ai/ha, 14 days after application, read-out: Visual Growth Reduction (%) 14 Days After Application SORVU
Cc1c(-c2cc(N)c(Cl)c(C(=O)O)n2)ccc(F)c1F [Compound 87] showed a pest or weed control at 140 g/ha of 0 to 29%.

Same assay, conditions: post-emergence, 336 h, TRZSS (crop), 70 g ai/ha, 14 days after application, read-out: Visual Growth Reduction (%) 14 Days After Application TRZSS
Cc1c(-c2cc(N)c(Cl)c(C(=O)O)n2)ccc(F)c1F [Compound 87] gave a pest or weed control at 70 g/ha of 0 to 29%.

Same assay, conditions: post-emergence, 336 h, TRZSS (crop), 140 g ai/ha, 14 days after application, read-out: Visual Growth Reduction (%) 14 Days After Application TRZSS
Cc1c(-c2cc(N)c(Cl)c(C(=O)O)n2)ccc(F)c1F [Compound 87] showed a pest or weed control at 140 g/ha of 0 to 29%.

Same assay, conditions: post-emergence, 336 h, ZEAMX: maize, corn (Zea mays), 70 g ai/ha, 14 days after application, read-out: Visual Growth Reduction (%) 14 Days After Application ZEAMX
In the case of Cc1c(-c2cc(N)c(Cl)c(C(=O)O)n2)ccc(F)c1F [Compound 87], the pest or weed control at 70 g/ha was 0 to 29%.

Same assay, conditions: post-emergence, 336 h, ZEAMX: maize, corn (Zea mays), 140 g ai/ha, 14 days after application, read-out: Visual Growth Reduction (%) 14 Days After Application ZEAMX
With Cc1c(-c2cc(N)c(Cl)c(C(=O)O)n2)ccc(F)c1F [Compound 87] the pest or weed control at 140 g/ha was 0 to 29%.

System: not given
Experiment: not given
Details: not given
In the case of Cc1c(-c2cc(N)c(Cl)c(C(=O)O)n2)ccc(F)c1F [Compound 87], the melting point was 163 to 165 °C.
